Experimental data reported in US20230131630A1, “METHOD OF SCREENING FOR A SUBSTANCE THAT ACTS ON A CELL MASS” (LSI MEDIENCE CORPORATION, priority 2017, published 2023).

Key:
[1] = system: cell mass of primary cancer cells from PDX tumor of pancreatic cancer (1); experiment: In vitro anticancer drug sensitivity test, ATP assay (CellTiter-Glo 3D) on three-dimensionally cultured cell mass; type: cell-based, human; settings: fresh tumor; gemcitabine 0.001-10 µmol/L from Day 7, ATP assay on Day 14; FIG. 8 right
Protocol: A half of medium exchange was performed with a culture medium supplemented with gemcitabine on Day 7. A half of medium exchange was performed with a culture medium supplemented with gemcitabine which was adjusted to maintain the final concentration on Days 10 and 12. On Day 14, ATP assay was performed, and the proportion based on the result of each gemcitabine concentration group was calculated when the result at a gemcitabine concentration of 0 µmol / L was defined as a cell viability of 100%, thereby creating a cell viability curve. An in vitro anticancer drug sensitivity test was performed by the following procedures. After dispersion treatment, the necessary amount of cells counted were collected in a 15-mL tube, and the supernatant was removed by centrifugation at 300 × g for 5 min. Thereafter, a cell suspension was prepared so that the cell count was 5 × 10^4 cells/mL using a medium prepared by adding Corning Matrigel GFR (Corning Incorporated) to StemPro hESC SFM (Thermo Fisher Scientific K.K.) to yield a final concentration of 2% v/v. […] The seeded cell count was 1 × 10^4 cells/200 µL/well, and the day of seeding was determined to be Day 0. […] The proportion of the result of each gemcitabine concentration group was calculated when the result at a gemcitabine concentration of 0 µmol / L was defined as a cell viability of 100%, thereby creating a cell viability curve.

[2] = system: PDX tumor of pancreatic cancer (1); experiment: In vivo anticancer drug sensitivity test, PDX tumor grafted subcutaneously in immunodeficient mice; settings: super SCID mouse, subcutaneous graft; gemcitabine 60 mg/kg/time twice weekly for 4 weeks; FIG. 8 left
Protocol: An in vivo anticancer drug sensitivity test was performed by the following procedures with reference to a known method. A PDX tumor of pancreatic cancer (1), which was subcutaneously grown in an immunodeficient mouse [super SCID mouse (strain name: C3H/HeJ/NOs-scid; LPS-nonresponder)], was aseptically extracted in a safety cabinet, and every necrotic area of the tumor was removed with surgical scissors. Subsequently, graft tumor fragments each having a size of about 2 to 3 mm square were prepared and subcutaneously grafted in at least 12 immunodeficient mice. When the average tumor volume reached about 200 mm^3, the mice were grouped by tumor volume and assigned to a control group and a gemcitabine administration group (N = 6: 6 mice each under the same conditions). Gemcitabine (60 mg/kg/time) was administered at a dosing frequency of twice weekly for 4 weeks. The tumor diameter was measured at a frequency of twice weekly and the tumor volume was calculated, thereby creating a tumor proliferation curve.

[3] = system: cell mass originating from the once-frozen PDX tumor of pancreatic cancer (1); experiment: In vitro gemcitabine sensitivity test, ATP assay on cell mass from once-frozen tumor tissue; type: cell-based, human; settings: gemcitabine 0.001-10 µmol/L from Day 3, ATP assay on Day 7, FIG. 9
Protocol: The PDX tumor of pancreatic cancer (1) (procured from National Institutes of Biomedical Innovation, Health and Nutrition) was extracted in accordance with Example 1. The tumor was immersed in CELLBANKER 1 (Takara Bio Inc.) and frozen by a Program Deep Freezer (Nepa Gene Co., Ltd.), thereby preparing a frozen tumor. The frozen tumor was thawed in a warm bath at 37° C. and washed with HBSS (Thermo Fisher Scientific K.K.), and then, primary cancer cells were prepared in accordance with Example 1. After dispersion treatment, the necessary amount of cells counted were collected in a 15-mL tube, and the supernatant was removed by centrifugation at 300 × g for 5 min. […] The seeded cell count was 1 × 10^4 cells/200 µL/well, and the day of seeding was determined to be Day 0. […] The proportion of the result of each measurement day with respect to the result of Day 0 was calculated, and a proliferation curve was created. The proportion based on the result of each gemcitabine concentration group was calculated when the result at a gemcitabine concentration of 0 µmol / L was defined as a cell viability of 100%, thereby creating a cell viability curve.

[4] = system: reproduced cell mass originating from the PDX tumor of pancreatic cancer (1); experiment: In vitro gemcitabine sensitivity test, ATP assay on subcultured (reproduced) cell mass; type: cell-based, human; settings: fresh or frozen tumor-derived, gemcitabine 0.001-10 µmol/L from Day 3, ATP assay on Day 7, FIGS. 10-1, 10-2
Protocol: A fresh tumor-derived cell mass and a frozen tumor-derived cell mass were obtained in accordance with Examples 1 and 10, respectively, using a PDX tumor of pancreatic cancer (1) (procured from National Institutes of Biomedical Innovation, Health and Nutrition). Each cell mass was collected in a 50-mL tube, and the supernatant was removed by centrifugation at 300 × g for 5 min. Thereafter, the cell mass was suspended in TrypLE (Thermo Fisher Scientific K.K.) and enzymatically treated in a warm bath at 37° C. The reaction was weakened by adding 10 times the amount of HBSS (Thermo Fisher Scientific K.K.) to the reaction solution. The undispersed residues were removed by passing the mixture through a 100-µm cell strainer. […]
The necessary amount of cells were collected in a 15-mL tube, and the supernatant was removed by centrifugation at 300 × g for 5 min. […] The seeded cell count was 1 × 10^4 cells/200 µL/well (fresh tumor-derived) or 4 × 10^3 cells/200 µL/well (frozen tumor-derived), and the day of seeding was determined to be Day 0. […] The ratio of the result of each measurement day with respect to the result of Day 0 was calculated, and a growth curve was created. The proportion based on the result of each gemcitabine concentration group was calculated when the result at a gemcitabine concentration of 0 µmol/L was defined as a cell viability of 100%, thereby creating a cell viability curve. […]

Nc1ccn([C@@H]2O[C@H](CO)[C@@H](O)C2(F)F)c(=O)n1 [Gemcitabine, gemcitabine]
inhibited proliferation: proliferation / cell viability (ATP assay) of the cell mass [1] | proliferation of the PDX tumor (tumor volume, tumor proliferation curve) [2] | proliferation / cell viability (ATP assay) of the cell mass [3] | proliferation / cell viability (ATP assay) of the reproduced cell mass [4]
